Experimental data reported in patent US20240150340A1, “CDK Inhibitors And Their Use As Pharmaceuticals” (Prelude Therapeutics Incorporated, priority 2022, published 2024).

What was measured:
CDK2/Cyclin E2 = biological target: T1, CDK2/Cyclin E2 (Homo sapiens, UniProt P24941); experiment: CDK2/CyclinE2 Enzymatic Activity Assay (TR-FRET); assay type: biochemical; conditions: ATP 1 mM final, read-out: CDK2_E1 IC50
T1 construct: Recombinant protein complex CDK2/Cyclin E2, expressed from insect cell, was purchased from ProQinase
Method in brief: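 Recombinant insect-cell CDK2/Cyclin E2 (1 nM) phosphorylated ULight-4E-BP1 (50 nM) with 1 mM ATP in HEPES pH 7.4 buffer, after 20 min compound preincubation; MgCl2 (10 mM) started the 45 min reaction at 37° C. Europium anti-phospho-4E-BP1 TR-FRET read; 9-dose IC50 by 4-parameter fit.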

OVCAR3 p-RB = experiment: pRB ICW Assay in OVCAR3 Cells; assay type: cell-based; conditions: Homo sapiens, OVCAR-3, incubated with compound for 2 hours
Method in brief: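 In-Cell Western on OVCAR3: phospho-RB antibody signal with DRAQ5 counterstain read at 700 and 800 nm after fixation. Compounds were applied for 2 h at 37° C. as 9-point ½-log dilutions in duplicate; 10 μM reference compound defined full inhibition.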

CDK4/Cyclin D1 = biological target: T2, CDK4/Cyclin D1 (Homo sapiens, UniProt P11802); experiment: CDK4/CyclinD1 Enzymatic Activity Assay (TR-FRET); assay type: biochemical; conditions: ATP 2 mM final, read-out: CDK4_D1 IC50
T2 construct: purchased ProQinase; host or cells: insect cell
Method in brief: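 Insect-cell-expressed CDK4/Cyclin D1 (1 nM) with ULight-4E-BP1 (100 nM) and 2 mM ATP in HEPES pH 7.4; 9-dose 3-fold compound series preincubated 20 min, reaction started with 10 mM MgCl2, 45 min at 37° C. Europium anti-P-4E-BP1 TR-FRET read; IC50 from 4-parameter Hill fit.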

T2 sequence (P11802 whole entry): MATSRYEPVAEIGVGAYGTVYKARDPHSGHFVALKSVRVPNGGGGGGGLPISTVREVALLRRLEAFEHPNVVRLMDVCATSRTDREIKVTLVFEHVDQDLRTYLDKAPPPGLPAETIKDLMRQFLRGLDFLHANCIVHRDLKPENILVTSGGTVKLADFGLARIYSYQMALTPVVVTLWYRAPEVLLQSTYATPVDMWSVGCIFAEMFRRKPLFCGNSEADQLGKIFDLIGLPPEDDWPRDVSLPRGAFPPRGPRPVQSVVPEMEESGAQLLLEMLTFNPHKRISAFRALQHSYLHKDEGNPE
T2 sequence (P24385 whole entry partner): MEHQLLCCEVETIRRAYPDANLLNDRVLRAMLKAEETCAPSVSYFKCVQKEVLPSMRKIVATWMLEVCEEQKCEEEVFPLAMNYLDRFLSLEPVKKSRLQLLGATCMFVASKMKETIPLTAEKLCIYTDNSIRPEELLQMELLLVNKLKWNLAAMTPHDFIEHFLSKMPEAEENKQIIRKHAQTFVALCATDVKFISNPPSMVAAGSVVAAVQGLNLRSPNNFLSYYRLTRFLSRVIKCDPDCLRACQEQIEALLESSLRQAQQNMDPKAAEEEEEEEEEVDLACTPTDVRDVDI

Row | SMILES | IC50 (CDK2/Cyclin E2) | IC50 (OVCAR3 p-RB) | IC50 (CDK4/Cyclin D1)
1 | C[C@@H]1CN(S(=O)(=O)c2cnn(CC#N)c2)CC[C@@H]1Nc1ncc(C(F)(F)F)c(-c2cc(C(N)=O)cs2)n1 [Example 87, 5-(2-(((3R,4S)-1-((1-(Cyanomethyl)-1H-pyrazol-4-yl)sulfonyl)-3-methylpiperidin-4-yl)amino)-5-(trifluoromethyl)pyrimidin-4-yl)thiophene-3-carboxamide] | ≤ 100 nM | ≤ 100 nM | ≤ 100 nM
2 | Cc1sc(-c2nc(NC3CCN(S(=O)(=O)c4cnn(CC#N)c4)CC3)ncc2C(F)(F)F)cc1C#N [Example 88, 5-(2-((1-((1-(cyanomethyl)-1H-pyrazol-4-yl)sulfonyl)piperidin-4-yl)amino)-5-(trifluoromethyl)pyrimidin-4-yl)-2-methylthiophene-3-carbonitrile] | ≤ 100 nM | ≤ 100 nM | ≤ 100 nM
3 | CC(O)c1cnc(-c2nc(NC3CCN(S(=O)(=O)c4cnn(C)c4)CC3)ncc2C(F)(F)F)s1 (stereo not drawn) [Example 89, 1-(2-(2-((1-((1-Methyl-1H-pyrazol-4-yl)sulfonyl)piperidin-4-yl)amino)-5-(trifluoromethyl)pyrimidin-4-yl)thiazol-5-yl)ethan-1-ol] | ≤ 100 nM | ≤ 100 nM | ≤ 100 nM
4 | CC(O)c1sc(-c2nc(NC3CCN(S(=O)(=O)c4cnn(C)c4)CC3)ncc2C(F)(F)F)cc1C#N (stereo not drawn) [Example 90, 2-(1-Hydroxyethyl)-5-(2-((1-((1-methyl-1H-pyrazol-4-yl)sulfonyl)piperidin-4-yl)amino)-5-(trifluoromethyl)pyrimidin-4-yl)thiophene-3-carbonitrile] | ≤ 100 nM | ≤ 100 nM | ≤ 100 nM
5 | Cn1cc(S(=O)(=O)N2CCC(Nc3ncc(C(F)(F)F)c(-c4cc(C#N)ns4)n3)CC2)cn1 [Example 91, 5-(2-((1-((1-methyl-1H-pyrazol-4-yl)sulfonyl)piperidin-4-yl)amino)-5-(trifluoromethyl)pyrimidin-4-yl)isothiazole-3-carbonitrile] | ≤ 100 nM | 100 to 500 nM | 100 to 500 nM
6 | Cn1cnc(S(=O)(=O)N2CCC(Nc3ncc(C(F)(F)F)c(-c4nc(C(N)=O)cs4)n3)CC2)c1 [Example 92, 2-(2-((1-((1-Methyl-1H-imidazol-4-yl)sulfonyl)piperidin-4-yl)amino)-5-(trifluoromethyl)pyrimidin-4-yl)thiazole-4-carboxamide] | > 500 nM | > 500 nM | > 500 nM
7 | Cc1sc(-c2nc(NC3CCN(S(=O)(=O)c4cnc(N)s4)CC3)ncc2C(F)(F)F)cc1C#N [Example 93, 5-(2-((1-((2-Aminothiazol-5-yl)sulfonyl)piperidin-4-yl)amino)-5-(trifluoromethyl)pyrimidin-4-yl)-2-methylthiophene-3-carbonitrile] | ≤ 100 nM | 100 to 500 nM | 100 to 500 nM
8 | Cc1sc(-c2nc(N[C@H]3CCN(S(=O)(=O)c4cnc(N)s4)C[C@H]3C)ncc2C(F)(F)F)cc1C#N [Example 94, 5-(2-(((3R,4S)-1-((2-aminothiazol-5-yl)sulfonyl)-3-methylpiperidin-4-yl)amino)-5-(trifluoromethyl)pyrimidin-4-yl)-2-methylthiophene-3-carbonitrile] | ≤ 100 nM | 100 to 500 nM | > 500 nM
9 | C[C@@H]1CN(S(=O)(=O)c2cnn(C)c2)CC[C@@H]1Nc1ncc(C(F)(F)F)c(-c2ncc(C(C)(C)O)s2)n1 [Example 100, 2-(2-(2-(((3R,4S)-3-methyl-1-((1-methyl-1H-pyrazol-4-yl)sulfonyl)piperidin-4-yl)amino)-5-(trifluoromethyl)pyrimidin-4-yl)thiazol-5-yl)propan-2-ol] | ≤ 100 nM | ≤ 100 nM | ≤ 100 nM

Other lines, results leading:

Row | IC50 (CDK2/Cyclin E2) | IC50 (OVCAR3 p-RB) | IC50 (CDK4/Cyclin D1) | SMILES
10 | ≤ 100 nM | ≤ 100 nM | ≤ 100 nM | CC(O)(c1cnc(-c2nc(NC3CCN(S(C)(=O)=O)CC3)ncc2C(F)(F)F)s1)C(F)(F)F (stereo not drawn) [Example 103, 1,1,1-trifluoro-2-(2-(2-((1-(methylsulfonyl)piperidin-4-yl)amino)-5-(trifluoromethyl)pyrimidin-4-yl)thiazol-5-yl)propan-2-ol]
11 | ≤ 100 nM | ≤ 100 nM | ≤ 100 nM | C[C@@H]1CN(S(=O)(=O)c2cn(C)cn2)CC[C@@H]1Nc1ncc(C(F)(F)F)c(-c2ncc(C(C)(O)C(F)F)s2)n1 (stereo partly drawn) [Example 104, 1,1-difluoro-2-(2-(2-(((3R,4S)-3-methyl-1-((1-methyl-1H-imidazol-4-yl)sulfonyl)piperidin-4-yl)amino)-5-(trifluoromethyl)pyrimidin-4-yl)thiazol-5-yl)propan-2-ol]
12 | ≤ 100 nM | ≤ 100 nM | ≤ 100 nM | CC(C)(O)Cc1cnc(-c2nc(NC3CCN(S(C)(=O)=O)CC3)ncc2C(F)(F)F)s1 [Example 107, 2-Methyl-1-(2-(2-((1-(methylsulfonyl)piperidin-4-yl)amino)-5-(trifluoromethyl)pyrimidin-4-yl)thiazol-5-yl)propan-2-ol]
13 | ≤ 100 nM | 100 to 500 nM | ≤ 100 nM | CC(C)(O)Cc1cnc(-c2nc(N[C@H]3CCN(S(C)(=O)=O)C[C@H]3F)ncc2C(F)(F)F)s1 [Example 108, 1-(2-(2-(((3R,4S)-3-fluoro-1-(methylsulfonyl)piperidin-4-yl)amino)-5-(trifluoromethyl)pyrimidin-4-yl)thiazol-5-yl)-2-methylpropan-2-ol]
14 | ≤ 100 nM | ≤ 100 nM | ≤ 100 nM | Cn1cc(S(=O)(=O)N2CC[C@H](Nc3ncc(C(F)(F)F)c(-c4ncc(CC(C)(C)O)s4)n3)[C@H](F)C2)cn1 [Example 109, 1-(2-(2-(((3R,4S)-3-fluoro-1-((1-methyl-1H-pyrazol-4-yl)sulfonyl)piperidin-4-yl)amino)-5-(trifluoromethyl)pyrimidin-4-yl)thiazol-5-yl)-2-methylpropan-2-ol]
15 | ≤ 100 nM | 100 to 500 nM | ≤ 100 nM | CC(O)c1cnc(-c2nc(N[C@H]3CCN(S(=O)(=O)c4cnn(C)c4)C[C@H]3F)ncc2C(F)(F)F)s1 (stereo partly drawn) [Example 114, 1-(2-(2-(((3R,4S)-3-fluoro-1-((1-methyl-1H-pyrazol-4-yl)sulfonyl)piperidin-4-yl)amino)-5-(trifluoromethyl)pyrimidin-4-yl)thiazol-5-yl)ethan-1-ol]
16 | ≤ 100 nM | > 500 nM | 100 to 500 nM | C[C@@H]1CN(S(C)(=O)=O)CC[C@@H]1Nc1ncc(C(F)(F)F)c(-c2ncc(CC(C)(C)O)s2)n1 [Example 131, 2-methyl-1-(2-(2-(((3R,4S)-3-methyl-1-(methylsulfonyl)piperidin-4-yl)amino)-5-(trifluoromethyl)pyrimidin-4-yl)thiazol-5-yl)propan-2-ol]
17 | ≤ 100 nM | > 500 nM | 100 to 500 nM | C[C@@H]1CN(S(C)(=O)=O)CC[C@@H]1Nc1ncc(C(F)(F)F)c(-c2ncc(C(C)(C)O)s2)n1 [Example 132, 2-(2-(2-(((3R,4S)-3-methyl-1-(methylsulfonyl)piperidin-4-yl)amino)-5-(trifluoromethyl)pyrimidin-4-yl)thiazol-5-yl)propan-2-ol]
18 | ≤ 100 nM | 100 to 500 nM | 100 to 500 nM | C[C@@H]1CN(S(C)(=O)=O)CC[C@@H]1Nc1ncc(C(F)(F)F)c(-c2ncc(C(C)(O)C(F)F)s2)n1 (stereo partly drawn) [Example 142, 1,1-difluoro-2-(2-(2-(((3R,4S)-3-methyl-1-(methylsulfonyl)piperidin-4-yl)amino)-5-(trifluoromethyl)pyrimidin-4-yl)thiazol-5-yl)propan-2-ol]
